# Test results as given in ChEMBL document CHEMBL4052759, “Discovery of DS79182026: A potent orally active hepcidin production inhibitor” (Bioorg Med Chem Lett, 2017).
# Assays:
# [1] = target: AMPK alpha2/beta1/gamma1 (Homo sapiens) (UniProt P54646+P54619+Q9Y478); test: Inhibition of AMPK-alpha2/beta1/gamma1 (unknown origin) at 0.49 uM relative to control; assay type: protein-complex assay
# [2] = target: Macrophage-stimulating protein receptor (Homo sapiens) (UniProt Q04912); test: Inhibition of MST1R (unknown origin) at 0.49 uM relative to control
# [3] = target: Fibroblast growth factor receptor 1 (Homo sapiens) (UniProt P11362); test: Inhibition of FGFR1 (unknown origin) at 0.49 uM relative to control
# Fibroblast growth factor receptor 1 (Homo sapiens), sequence (P11362 22-822 limits assumed): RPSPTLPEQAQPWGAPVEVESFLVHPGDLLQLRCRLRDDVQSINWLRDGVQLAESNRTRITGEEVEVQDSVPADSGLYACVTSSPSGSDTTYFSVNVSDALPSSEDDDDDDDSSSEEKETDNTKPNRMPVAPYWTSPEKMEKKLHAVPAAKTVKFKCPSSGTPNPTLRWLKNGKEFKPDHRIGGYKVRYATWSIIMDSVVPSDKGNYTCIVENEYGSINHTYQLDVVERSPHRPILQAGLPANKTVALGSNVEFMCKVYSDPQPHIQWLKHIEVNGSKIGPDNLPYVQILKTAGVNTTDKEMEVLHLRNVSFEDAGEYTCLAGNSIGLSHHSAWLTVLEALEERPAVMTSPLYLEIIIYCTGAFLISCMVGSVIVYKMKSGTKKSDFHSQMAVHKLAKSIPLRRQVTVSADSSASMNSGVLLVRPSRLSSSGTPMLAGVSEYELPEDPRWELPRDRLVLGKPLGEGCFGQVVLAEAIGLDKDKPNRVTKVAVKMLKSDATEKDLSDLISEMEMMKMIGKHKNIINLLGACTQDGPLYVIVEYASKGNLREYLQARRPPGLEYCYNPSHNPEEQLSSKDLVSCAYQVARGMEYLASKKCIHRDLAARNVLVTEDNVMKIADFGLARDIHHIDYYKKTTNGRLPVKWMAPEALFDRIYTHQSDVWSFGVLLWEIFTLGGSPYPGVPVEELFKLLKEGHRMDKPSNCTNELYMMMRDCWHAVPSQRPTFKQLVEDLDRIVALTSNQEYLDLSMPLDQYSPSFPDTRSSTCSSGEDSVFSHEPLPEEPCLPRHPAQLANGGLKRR
# [4] = target: Homeodomain-interacting protein kinase 1 (Homo sapiens) (UniProt Q86Z02); test: Inhibition of HIPK1 (unknown origin) at 0.49 uM relative to control
# [5] = target: Calcium/calmodulin-dependent protein kinase type 1D (Homo sapiens) (UniProt Q8IU85); test: Inhibition of CamK1d (unknown origin) at 0.49 uM relative to control
# Calcium/calmodulin-dependent protein kinase type 1D (Homo sapiens), sequence (Q8IU85 whole entry, looked up): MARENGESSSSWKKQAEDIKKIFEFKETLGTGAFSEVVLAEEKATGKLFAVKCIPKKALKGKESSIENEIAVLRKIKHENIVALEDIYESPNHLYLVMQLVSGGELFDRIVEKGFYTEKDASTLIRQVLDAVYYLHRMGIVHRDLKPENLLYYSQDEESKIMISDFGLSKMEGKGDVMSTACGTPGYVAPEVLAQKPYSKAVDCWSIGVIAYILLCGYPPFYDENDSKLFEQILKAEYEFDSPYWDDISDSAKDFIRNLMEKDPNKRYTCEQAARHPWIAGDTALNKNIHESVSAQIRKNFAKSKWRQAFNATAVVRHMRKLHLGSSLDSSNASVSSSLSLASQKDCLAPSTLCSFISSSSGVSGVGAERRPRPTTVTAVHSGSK
# [6] = target: Homeodomain-interacting protein kinase 3 (Homo sapiens) (UniProt Q9H422); test: Inhibition of HIPK3 (unknown origin) at 0.49 uM relative to control
# Homeodomain-interacting protein kinase 3 (Homo sapiens), sequence (Q9H422 whole entry, looked up): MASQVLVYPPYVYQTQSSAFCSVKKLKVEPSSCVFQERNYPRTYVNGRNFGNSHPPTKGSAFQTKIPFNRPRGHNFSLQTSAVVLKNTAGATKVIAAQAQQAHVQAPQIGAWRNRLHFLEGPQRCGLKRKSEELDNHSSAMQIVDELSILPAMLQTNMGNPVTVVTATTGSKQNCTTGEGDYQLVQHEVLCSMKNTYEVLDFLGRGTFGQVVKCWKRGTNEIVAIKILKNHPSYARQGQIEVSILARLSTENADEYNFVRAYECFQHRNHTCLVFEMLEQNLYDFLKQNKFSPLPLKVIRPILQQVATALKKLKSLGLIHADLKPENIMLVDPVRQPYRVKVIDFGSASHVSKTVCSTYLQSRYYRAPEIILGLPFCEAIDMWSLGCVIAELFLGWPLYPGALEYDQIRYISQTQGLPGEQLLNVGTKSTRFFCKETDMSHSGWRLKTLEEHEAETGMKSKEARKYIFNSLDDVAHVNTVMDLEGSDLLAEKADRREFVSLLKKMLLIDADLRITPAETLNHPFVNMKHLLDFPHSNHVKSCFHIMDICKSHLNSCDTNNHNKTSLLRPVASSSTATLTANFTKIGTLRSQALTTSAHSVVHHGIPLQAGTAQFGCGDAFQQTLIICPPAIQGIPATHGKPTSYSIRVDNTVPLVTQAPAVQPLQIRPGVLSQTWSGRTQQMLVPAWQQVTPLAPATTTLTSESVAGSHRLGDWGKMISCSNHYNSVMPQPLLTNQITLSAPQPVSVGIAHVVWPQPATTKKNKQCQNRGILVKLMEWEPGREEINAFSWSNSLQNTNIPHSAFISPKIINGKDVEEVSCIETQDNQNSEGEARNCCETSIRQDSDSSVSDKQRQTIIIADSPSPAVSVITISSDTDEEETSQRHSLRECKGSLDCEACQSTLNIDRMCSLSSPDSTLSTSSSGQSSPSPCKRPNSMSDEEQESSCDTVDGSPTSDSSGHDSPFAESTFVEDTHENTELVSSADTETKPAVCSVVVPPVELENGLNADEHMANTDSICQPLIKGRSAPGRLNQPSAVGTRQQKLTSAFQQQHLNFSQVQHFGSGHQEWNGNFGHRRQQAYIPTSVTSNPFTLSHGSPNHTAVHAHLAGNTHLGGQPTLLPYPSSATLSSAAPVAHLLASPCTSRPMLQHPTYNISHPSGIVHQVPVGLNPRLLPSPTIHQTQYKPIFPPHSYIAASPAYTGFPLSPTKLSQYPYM
# [7] = target: MAP/microtubule affinity-regulating kinase 4 (Homo sapiens) (UniProt Q96L34); test: Inhibition of MARK4 (unknown origin) at 0.49 uM relative to control
# MAP/microtubule affinity-regulating kinase 4 (Homo sapiens), sequence (Q96L34 whole entry): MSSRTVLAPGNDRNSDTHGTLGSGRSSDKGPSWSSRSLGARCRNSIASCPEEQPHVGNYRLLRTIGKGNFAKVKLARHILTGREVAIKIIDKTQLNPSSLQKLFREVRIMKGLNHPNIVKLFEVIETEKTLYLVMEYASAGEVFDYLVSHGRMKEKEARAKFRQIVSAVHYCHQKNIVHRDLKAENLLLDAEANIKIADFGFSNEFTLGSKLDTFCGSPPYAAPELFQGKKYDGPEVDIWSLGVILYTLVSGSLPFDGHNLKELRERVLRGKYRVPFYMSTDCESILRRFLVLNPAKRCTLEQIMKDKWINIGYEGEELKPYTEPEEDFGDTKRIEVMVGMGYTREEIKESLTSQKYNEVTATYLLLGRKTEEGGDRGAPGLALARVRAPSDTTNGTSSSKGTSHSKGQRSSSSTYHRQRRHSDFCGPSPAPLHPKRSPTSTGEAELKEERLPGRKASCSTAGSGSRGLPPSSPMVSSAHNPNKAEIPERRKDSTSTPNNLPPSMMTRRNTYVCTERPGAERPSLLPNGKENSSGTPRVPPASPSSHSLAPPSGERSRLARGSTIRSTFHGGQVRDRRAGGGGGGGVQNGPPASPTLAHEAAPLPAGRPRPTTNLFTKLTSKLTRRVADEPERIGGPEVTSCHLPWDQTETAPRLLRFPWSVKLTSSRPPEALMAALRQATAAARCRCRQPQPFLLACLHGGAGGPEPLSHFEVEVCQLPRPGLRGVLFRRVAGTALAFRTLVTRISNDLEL
# [8] = target: T1, Serine/threonine-protein kinase D2 (Homo sapiens) (UniProt Q9BZL6); test: Inhibition of PKD2 (unknown origin) at 0.49 uM relative to control
# T1 sequence (whole entry): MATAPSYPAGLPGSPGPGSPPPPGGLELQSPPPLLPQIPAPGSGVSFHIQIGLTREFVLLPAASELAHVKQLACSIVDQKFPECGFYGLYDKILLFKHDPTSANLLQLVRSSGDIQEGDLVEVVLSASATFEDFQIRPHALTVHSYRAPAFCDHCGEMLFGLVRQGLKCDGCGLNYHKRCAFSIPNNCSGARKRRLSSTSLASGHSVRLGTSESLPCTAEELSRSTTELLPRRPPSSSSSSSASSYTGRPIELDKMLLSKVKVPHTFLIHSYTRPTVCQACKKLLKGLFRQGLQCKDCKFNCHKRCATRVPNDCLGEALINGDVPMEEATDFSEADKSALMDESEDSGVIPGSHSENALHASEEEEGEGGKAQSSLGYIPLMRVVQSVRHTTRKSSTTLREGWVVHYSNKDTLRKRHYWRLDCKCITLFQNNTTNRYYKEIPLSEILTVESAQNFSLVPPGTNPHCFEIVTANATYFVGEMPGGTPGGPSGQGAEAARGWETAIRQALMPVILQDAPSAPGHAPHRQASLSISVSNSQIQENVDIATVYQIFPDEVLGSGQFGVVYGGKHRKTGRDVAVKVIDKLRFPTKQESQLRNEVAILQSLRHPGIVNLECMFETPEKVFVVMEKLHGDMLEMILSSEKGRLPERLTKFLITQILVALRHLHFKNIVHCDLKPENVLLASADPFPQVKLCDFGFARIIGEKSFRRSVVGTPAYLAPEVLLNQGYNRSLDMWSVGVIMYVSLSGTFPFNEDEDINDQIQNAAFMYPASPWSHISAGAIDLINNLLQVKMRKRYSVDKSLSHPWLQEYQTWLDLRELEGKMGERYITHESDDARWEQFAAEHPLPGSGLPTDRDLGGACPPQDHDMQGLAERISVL
# [9] = target: T2, Serine/threonine-protein kinase 3 (Homo sapiens) (UniProt Q13188); test: Inhibition of MST2 (unknown origin) at 0.49 uM relative to control
# T2 sequence (whole entry): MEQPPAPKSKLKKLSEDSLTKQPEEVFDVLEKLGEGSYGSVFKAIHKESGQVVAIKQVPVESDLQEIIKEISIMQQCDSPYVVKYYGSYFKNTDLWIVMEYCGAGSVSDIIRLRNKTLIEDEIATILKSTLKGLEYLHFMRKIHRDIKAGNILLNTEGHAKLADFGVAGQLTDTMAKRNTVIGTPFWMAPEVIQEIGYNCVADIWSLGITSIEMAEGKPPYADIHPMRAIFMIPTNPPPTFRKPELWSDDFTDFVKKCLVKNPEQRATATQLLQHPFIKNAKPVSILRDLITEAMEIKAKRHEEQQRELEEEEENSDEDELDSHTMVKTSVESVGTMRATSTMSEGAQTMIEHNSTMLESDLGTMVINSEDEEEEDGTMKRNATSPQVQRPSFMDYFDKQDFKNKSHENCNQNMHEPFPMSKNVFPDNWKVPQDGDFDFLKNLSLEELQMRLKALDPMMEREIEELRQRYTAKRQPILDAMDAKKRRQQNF
# [10] = target: Tyrosine-protein kinase Fes/Fps (Homo sapiens) (UniProt P07332); test: Inhibition of FES (unknown origin) at 0.49 uM relative to control
# [11] = target: Casein kinase I isoform gamma-1 (Homo sapiens) (UniProt Q9HCP0); test: Inhibition of CK1-gamma1 (unknown origin) at 0.49 uM relative to control
# [12] = target: Ephrin type-B receptor 1 (Homo sapiens) (UniProt P54762); test: Inhibition of EPHB1 (unknown origin) at 0.45 uM relative to control
# [13] = target: MAP/microtubule affinity-regulating kinase 4 (Homo sapiens) (UniProt Q96L34); test: Inhibition of MARK4 (unknown origin) at 0.45 uM relative to control
# [14] = target: Serine/threonine-protein kinase pim-2 (Homo sapiens) (UniProt Q9P1W9); test: Inhibition of PIM2 (unknown origin) at 0.45 uM relative to control
# [15] = target: RAC-alpha serine/threonine-protein kinase (Homo sapiens) (UniProt P31749); test: Inhibition of AKT1 (unknown origin) at 0.45 uM relative to control
# RAC-alpha serine/threonine-protein kinase (Homo sapiens), sequence (P31749 whole entry): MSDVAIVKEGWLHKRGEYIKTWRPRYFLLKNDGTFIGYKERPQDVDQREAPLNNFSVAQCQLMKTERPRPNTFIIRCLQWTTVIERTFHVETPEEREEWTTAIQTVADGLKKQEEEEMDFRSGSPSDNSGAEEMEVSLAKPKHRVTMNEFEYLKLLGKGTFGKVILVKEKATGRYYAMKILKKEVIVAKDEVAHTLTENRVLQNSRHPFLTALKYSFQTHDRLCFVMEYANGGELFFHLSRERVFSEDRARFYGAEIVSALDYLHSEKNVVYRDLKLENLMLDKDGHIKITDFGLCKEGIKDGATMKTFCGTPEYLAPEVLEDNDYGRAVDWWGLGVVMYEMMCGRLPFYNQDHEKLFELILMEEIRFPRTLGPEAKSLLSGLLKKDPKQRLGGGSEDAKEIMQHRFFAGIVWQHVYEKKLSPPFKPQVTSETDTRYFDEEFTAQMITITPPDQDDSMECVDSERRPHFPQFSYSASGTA
# [16] = target: Testis-specific serine/threonine-protein kinase 2 (Homo sapiens) (UniProt Q96PF2); test: Inhibition of TSSK2 (unknown origin) at 0.45 uM relative to control
# [17] = target: Tyrosine-protein kinase Fer (Homo sapiens) (UniProt P16591); test: Inhibition of Fer (unknown origin) at 0.45 uM relative to control
# [18] = target: Tyrosine-protein kinase Fgr (Homo sapiens) (UniProt P09769); test: Inhibition of FGR (unknown origin) at 0.45 uM relative to control
# [19] = target: Fibroblast growth factor receptor 2 (Homo sapiens) (UniProt P21802); test: Inhibition of FGFR2 (unknown origin) at 0.45 uM relative to control
# [20] = target: MAP kinase-interacting serine/threonine-protein kinase 1 (Homo sapiens) (UniProt Q9BUB5); test: Inhibition of MNK1 (unknown origin) at 0.45 uM relative to control
# [21] = target: Vascular endothelial growth factor receptor 2 (Homo sapiens) (UniProt P35968); test: Inhibition of KDR (unknown origin) at 0.45 uM relative to control
# Vascular endothelial growth factor receptor 2 (Homo sapiens), sequence (P35968 whole entry): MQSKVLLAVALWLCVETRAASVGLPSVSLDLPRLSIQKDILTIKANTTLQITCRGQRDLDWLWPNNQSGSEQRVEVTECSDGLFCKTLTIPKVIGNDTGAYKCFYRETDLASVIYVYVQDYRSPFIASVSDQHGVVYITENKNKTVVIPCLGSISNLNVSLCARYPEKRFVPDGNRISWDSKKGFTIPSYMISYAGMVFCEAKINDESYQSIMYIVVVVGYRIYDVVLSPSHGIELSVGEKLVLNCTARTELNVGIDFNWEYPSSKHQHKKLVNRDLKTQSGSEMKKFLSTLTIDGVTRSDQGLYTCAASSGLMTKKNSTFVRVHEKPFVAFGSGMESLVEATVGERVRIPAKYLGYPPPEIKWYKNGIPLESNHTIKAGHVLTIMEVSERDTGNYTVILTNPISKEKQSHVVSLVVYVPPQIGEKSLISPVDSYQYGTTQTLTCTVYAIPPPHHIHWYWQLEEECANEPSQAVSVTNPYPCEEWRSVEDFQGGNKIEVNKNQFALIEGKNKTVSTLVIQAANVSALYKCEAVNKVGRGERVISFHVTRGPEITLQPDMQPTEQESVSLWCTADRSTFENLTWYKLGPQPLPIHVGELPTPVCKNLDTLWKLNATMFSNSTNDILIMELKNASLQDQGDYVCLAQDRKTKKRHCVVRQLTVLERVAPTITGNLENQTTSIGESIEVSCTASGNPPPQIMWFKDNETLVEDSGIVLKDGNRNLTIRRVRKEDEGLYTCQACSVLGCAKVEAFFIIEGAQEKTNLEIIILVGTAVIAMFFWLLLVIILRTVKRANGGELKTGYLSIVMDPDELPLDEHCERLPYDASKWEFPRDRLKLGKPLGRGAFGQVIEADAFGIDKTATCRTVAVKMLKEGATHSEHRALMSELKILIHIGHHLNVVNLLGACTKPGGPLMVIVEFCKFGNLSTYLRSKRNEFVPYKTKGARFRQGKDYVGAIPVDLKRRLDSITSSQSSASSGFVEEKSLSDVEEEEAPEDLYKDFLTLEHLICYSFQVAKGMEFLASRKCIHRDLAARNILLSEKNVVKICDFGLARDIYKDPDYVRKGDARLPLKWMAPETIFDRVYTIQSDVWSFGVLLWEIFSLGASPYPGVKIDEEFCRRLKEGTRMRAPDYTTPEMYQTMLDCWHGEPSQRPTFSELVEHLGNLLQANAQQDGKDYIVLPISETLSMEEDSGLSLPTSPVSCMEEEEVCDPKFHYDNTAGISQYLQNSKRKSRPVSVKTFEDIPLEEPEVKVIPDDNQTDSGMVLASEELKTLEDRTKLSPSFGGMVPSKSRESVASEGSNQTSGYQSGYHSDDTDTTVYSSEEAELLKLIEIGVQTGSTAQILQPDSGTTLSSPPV
# [22] = target: Tyrosine-protein kinase JAK2 (Homo sapiens) (UniProt O60674); test: Inhibition of JAK2 (unknown origin) at 0.45 uM relative to control
# [23] = target: RAC-alpha serine/threonine-protein kinase (Homo sapiens) (UniProt P31749); test: Inhibition of AKT1 (unknown origin) at 0.078 uM relative to control
smiles,measurement,setting,value
Cc1[nH]nc(C2CC2)c1-c1ccc2c(NC(=O)C3CC3)noc2c1,inhibition,[1],3.3%
same,inhibition,[2],-3%
same,inhibition,[3],0.7%
same,inhibition,[4],1.7%
same,inhibition,[5],-4.3%
same,inhibition,[6],1.3%
same,inhibition,[7],8.7%
same,inhibition,[8],7.7%
same,inhibition,[9],1%
same,inhibition,[10],-5.3%
same,inhibition,[11],0.7%
Cc1n[nH]c(C)c1-c1ccc2c(NC(=O)c3ccc(N4CCN(C)CC4)cc3)n[nH]c2c1,inhibition,[12],6.7%
same,inhibition,[13],37%
same,inhibition,[14],-1.7%
same,inhibition,[15],-1.7%
same,inhibition,[16],-3%
same,inhibition,[17],2.3%
same,inhibition,[18],13%
same,inhibition,[19],21.7%
same,inhibition,[20],6.7%
same,inhibition,[21],35.7%
same,inhibition,[22],26%
COC(=O)Nc1noc2cc(-c3c(-c4ccccn4)n[nH]c3C)ccc12,inhibition,[23],-1%
